Source: PubChem BioAssay AID2060626 (Molecular Pharmacology Branch, DTP, NCI, 2025)
“And” between values parts separate entries of the source, which are not always exact repeats. Equal values may be shown once.

System: 168753-222-R-J1-PDC complex spheroid viability
Experiment: Anticancer human tumor 168753-222-R-J1-PDC patient-derived bladder carcinoma cell line growth inhibition [CLK]
Conditions: for viability, T/C: stronger effect = lower value
From the text: A high-throughput screen of multi-cell type tumor spheroids was designed to identify active combinations of […] and targeted small molecules. Complex spheroids include a stromal component modeled by human endothelial cells (HUVEC) and fibroblasts modeled by human mesenchymal stem cells (MSCs). The concentration ranges selected for each drug and investigational agent were based upon clinically achievable concentrations if the clinical Cmax of the agent was known.
Compounds. The drugs and investigational agents: cirtuvivint (SM08502; NSC835563), CC-671 (NSC850746), vemurafenib (NSC761431), tapotoclax (NSC804041), sotorasib (NSC818433), adagrasib (NSC831453), MRTX-1133 (NSC836407), BAY2416964 (NSC825713), copanlisib (NSC816437), inavolisib (NSC800729), abemaciclib (NSC768073), osimertinib (NSC779217), entinostat (NSC756642), eltanexor (KPT-8602, NSC794443), venetoclax (NSC766270), ceralasertib (NSC777638), bortezomib (NSC756655), olaparib (NSC753686), talazoparib (NSC767125), alisertib (NSC759677), peposertib (NSC802822), gemcitabine (NSC613327), 5-fluorouracil (NSC19893), SN-38 (NSC673596), oxaliplatin (NSC266046), paclitaxel (NSC125973), and doxorubicin (NSC123127), were obtained from the National Cancer Institute (NCI) Developmental Therapeutics Program Chemical Repository. The FDA-approved anticancer drug set is available from the Developmental Therapeutics Program at https://dtp.cancer.gov/organization/dscb/obtaining/available plates.htm. […] The stock solutions were prepared in dimethyl sulfoxide (DMSO, Sigma-Aldrich, St. Louis, MO, cat. D2650), except for the platinum complexes which were prepared in saline (Quality Biological, Gaithersburg, MD, cat. 114-055-101), at 800-fold the tested concentration and stored at -70 degrees C prior to their use. All drugs and investigational agents were tested over a range starting from a high concentration at or near the clinical Cmax and decreasing in half-log increments. If the clinical Cmax for an agent had not been determined, the highest concentration tested was 10 microM.
Cell Culture. All cells were maintained in an incubator at 37 degrees C and 5% CO2 with 95% humidity. The PDC lines were cultured according to standard operating procedures established by the NCI PDMR. Briefly, all PDCs were thawed and cultured in Matrigel-coated flasks prepared with a working solution of 1X Ham's F-12 nutrient mix, without supplementation (Invitrogen, Waltham, MA, cat. 11765054), 100 U/mL penicillin-streptomycin (Invitrogen, cat. 15140122), and 2.5% Matrigel (Corning Inc., Corning, NY, cat. 354248) for the first three passages. The 947758-054-R-J2-PDC line was cultured in 6B/Colon 1A media, which includes advanced DMEM/F-12 (Thermo Fisher Scientific, cat. 12634028), 10 mM HEPES (Thermo Fisher Scientific, cat. 15630080), 1X GlutaMAX supplement (Thermo Fisher Scientific, cat. 35050061), 0.1 mg/mL primocin (InvivoGen, cat. ant-pm-2), 10% defined fetal bovine serum, heat inactivated (HyClone Laboratories Inc., cat. SH30070.03HI), 1.25 mM N-Acetyl-L-cysteine (Sigma-Aldrich, cat. A9165), 10 mM nicotinamide (Sigma-Aldrich, cat. N0636), 1X B-27 supplement (Thermo Fisher Scientific, cat. 17504044), 1X N-2 supplement (Thermo Fisher Scientific, cat. 17502048), and 10 microM Y-27632 dihydrochloride (Tocris Bioscience, cat. 1254). The 876862-298-R-J1-PDC was cultured in 6E media, which includes all 6B/Colon 1A media components plus 50% L-WRN conditioned media (ATCC, cat. CRL-3276), 50 ng/mL recombinant human EGF recombinant protein (hEGF; Thermo Fisher Scientific, cat. PHG0311), 10 ng/mL recombinant human fibroblast growth factor 10 (hGFG-10; PeproTech, cat. 100-26), 1 ng/mL recombinant human fibroblast growth factor 2 (hFGF-2; PeproTech, cat. 100-18B), and 1 µM prostaglandin E2 (PGE2; Tocris, cat. 2296). The 227483-062-R1-J1-PDC line was cultured in Panc media, containing all 6E components except hFGF-2, with the addition of 500 nM SB-431542 (Selleckchem, cat. S1067) and 10 nM gastrin (Tocris, cat. 3006). […]
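Also: viability measured after seven days of drug exposure.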
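For viability, T/C in this document: luminescence signal used as surrogate for viable cell amount; 100% = DMSO vehicle control wells.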

For `CC(Nc1ccc2c(c1)OCCn1cc(N3C(=O)OCC3C(F)F)nc1-2)C(N)=O` (centres undefined), the viability, T/C (compound 0.0316 µM) was 86.9% and 78.6%, the viability, T/C (compound 0.1 µM) was 45.8% and 69.2% and the viability, T/C (compound 0.316 µM) was 20.7% and 22.8%. The viability, T/C (compound 1 µM) was 13.3% and 18.8%, the viability, T/C (compound 3.16 µM) was 10.3% and 13.1% and the viability, T/C (compound 10 µM) was 11% and 14.8%. For the same compound, the IC50 (curve of compound) was 88.9 nM and 161 nM.
`CC(C)CC(NC(=O)C(Cc1ccccc1)NC(=O)c1cnccn1)B(O)O` (centres undefined) + CNC(=O)c1ccc(Nc2nc(OC3CCCC3)c3c(-c4ccc5nc(C)oc5c4)c[nH]c3n2)c(OC)c1 gave an IC50 (curve of first compound, second compound 0.0316 µM) of 2.09 nM, an IC50 (curve of first compound, second compound 0.1 µM) of 2.31 nM and an IC50 (curve of first compound, second compound 0.316 µM) of 1.8 nM. The IC50 (curve of first compound, second compound 1 µM) was < 0.949 nM, the IC50 (curve of first compound, second compound 3.16 µM) was < 0.949 nM and the IC50 (curve of first compound, second compound 10 µM) was < 0.949 nM. For the same compound, the viability, T/C (second compound 0.0316 µM, first compound 0.000949 µM) was 98.6%, the viability, T/C (second compound 0.0316 µM, first compound 0.003 µM) was 27.7% and the viability, T/C (second compound 0.0316 µM, first compound 0.00949 µM) was 3.13%. The viability, T/C (second compound 0.0316 µM, first compound 0.03 µM) was 0.6%, the viability, T/C (second compound 0.0316 µM, first compound 0.0949 µM) was 1.66% and the viability, T/C (second compound 0.0316 µM, first compound 0.3 µM) was 0.44%. For the same compound, the viability, T/C (second compound 0.1 µM, first compound 0.000949 µM) was 89.3%, the viability, T/C (second compound 0.1 µM, first compound 0.003 µM) was 38.4% and the viability, T/C (second compound 0.1 µM, first compound 0.00949 µM) was 1.22%. It also gave a viability, T/C (second compound 0.1 µM, first compound 0.03 µM) of 0.27%, a viability, T/C (second compound 0.1 µM, first compound 0.0949 µM) of 0.53% and a viability, T/C (second compound 0.1 µM, first compound 0.3 µM) of 2.04%. For the same compound, the viability, T/C (second compound 0.316 µM, first compound 0.000949 µM) was 76.4%, the viability, T/C (second compound 0.316 µM, first compound 0.003 µM) was 29% and the viability, T/C (second compound 0.316 µM, first compound 0.00949 µM) was 0.8%. The viability, T/C (second compound 0.316 µM, first compound 0.03 µM) was 0.28%, the viability, T/C (second compound 0.316 µM, first compound 0.0949 µM) was 1.74% and the viability, T/C (second compound 0.316 µM, first compound 0.3 µM) was 0.24%. It also gave a viability, T/C (second compound 1 µM, first compound 0.000949 µM) of 38.4%, a viability, T/C (second compound 1 µM, first compound 0.003 µM) of 26.5% and a viability, T/C (second compound 1 µM, first compound 0.00949 µM) of 2.8%. It also gave a viability, T/C (second compound 1 µM, first compound 0.03 µM) of 0.43%, a viability, T/C (second compound 1 µM, first compound 0.0949 µM) of 2.22% and a viability, T/C (second compound 1 µM, first compound 0.3 µM) of 1.45%. It also gave a viability, T/C (second compound 3.16 µM, first compound 0.000949 µM) of 21.6%, a viability, T/C (second compound 3.16 µM, first compound 0.003 µM) of 20.2% and a viability, T/C (second compound 3.16 µM, first compound 0.00949 µM) of 0.44%. For the same compound, the viability, T/C (second compound 3.16 µM, first compound 0.03 µM) was 0.17%, the viability, T/C (second compound 3.16 µM, first compound 0.0949 µM) was 0.2% and the viability, T/C (second compound 3.16 µM, first compound 0.3 µM) was 0.35%. The viability, T/C (second compound 10 µM, first compound 0.000949 µM) was 21%, the viability, T/C (second compound 10 µM, first compound 0.003 µM) was 18.4% and the viability, T/C (second compound 10 µM, first compound 0.00949 µM) was 0.38%. For the same compound, the viability, T/C (second compound 10 µM, first compound 0.03 µM) was 1.09%, the viability, T/C (second compound 10 µM, first compound 0.0949 µM) was 1.85% and the viability, T/C (second compound 10 µM, first compound 0.3 µM) was 0.25%.
